Results: US20240025912A1 (Merck Sharp & Dohme LLC, priority 2022, published 2024)

Molecular target: GST-RIPK1 (recombinant GST-RIPK1 kinase domain (residues 1-327)) (Homo sapiens (Human), UniProt Q13546)
Test: RIPK1-ADP-Glo Enzymatic Assay
Format: biochemical
Settings: 25 nM GST-RIPK1, 300 μM ATP, 3 μM dephosphorylated-MBP, 30 min pre-incubation, 150 min reaction
Experimental: The enzymatic activity of RIPK1 is measured using an assay derived from ADP-Glo kit (TMPromega), which provides a luminescent-based ADP detection system. Specifically, the ADP generated by RIPK1 kinase is proportionally detected as luminescent signals in a homogenous fashion. In this context, the assessment of the inhibitory effect of small molecules (EC50) is measured by the effectiveness of the compounds to inhibit the ATP to ADP conversion by RIPK1.
In this assay, the potency (EC50) of each compound was determined from a ten-point (1:3 serial dilution; top compound concentration of 100000 nM) titration curve using the following outlined procedure. To each well of a white ProxiPlus 384 well-plate, 30 nL of compound (1% DMSO in final assay volume of 3 μL) was dispensed, followed by the addition of 2 μL of 1× assay buffer (25 mM Hepes 7.3, 20 mM MgCl2, 50 mM NaCl, 1 mM DTT, 0.005% Tween20, and 0.02% BSA) containing 37.5 nM of GST-RIPK1 (recombinant GST-RIPK1 kinase domain (residues 1-327) enzyme produced from baculovirus-transfected Sf21 cells: MW 62 kDa). Plates were placed in an ambient temperature humidified chamber for a 30 min pre-incubation with compound. Subsequently, each reaction was initiated by the addition of 1 μL 1× assay buffer containing 900 μM ATP and 3 μM dephosphorylated-MBP substrate. The final reaction in each well of 3 μL consists of 25 nM of GST-RIPK1, 300 μM ATP, and 3 μM dephosphorylated-MBP. Kinase reactions were allowed to proceed for 150 min prior to adding ADP-Glo reagents per Promega's outlined kit protocol. Dose-response curves were generated by plotting percent effect (% product conversion; Y-axis) vs. Log 10 compound concentrations (X-axis). EC50 values were calculated using a non-linear regression, four-parameters sigmoidal dose-response model.

GST-RIPK1 (recombinant GST-RIPK1 kinase domain (residues 1-327)), sequence (Q13546 1-327): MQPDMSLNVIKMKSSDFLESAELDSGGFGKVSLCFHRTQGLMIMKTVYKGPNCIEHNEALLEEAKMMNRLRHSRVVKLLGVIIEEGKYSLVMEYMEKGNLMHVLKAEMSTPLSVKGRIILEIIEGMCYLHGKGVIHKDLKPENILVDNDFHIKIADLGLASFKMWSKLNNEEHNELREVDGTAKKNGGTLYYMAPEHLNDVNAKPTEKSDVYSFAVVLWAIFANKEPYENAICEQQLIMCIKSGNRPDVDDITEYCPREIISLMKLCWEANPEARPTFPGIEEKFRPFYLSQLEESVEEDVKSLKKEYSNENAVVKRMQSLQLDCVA

Compound	EC50
O=c1n(C23CC(F)(C2)C3)nc2n1[C@H](c1ccccc1)CCC2 [Compound 1-80, (S)-2-(3-fluorobicyclo[1.1.1]pentan-1-yl)-5-phenyl-5,6,7,8-tetrahydro-[1,2,4]triazolo[4,3-a]pyridin-3(2H)-one]	73.3 nM
N#CC12CC(n3nc4n(c3=O)[C@H](c3ccc(F)cc3F)CC4)(C1)C2 [Compound 1-47, (S)-3-(5-(2,4-difluorophenyl)-3-oxo-6,7-dihydro-3H-pyrrolo[2,1-c][1,2,4]triazol-2(5H)-yl)bicyclo[1.1.1]pentane-1-carbonitrile]	86.4 nM
N#CC12CC(n3nc4n(c3=O)C(C3CCCC3)CC4)(C1)C2 (single isomer, unassigned) [Compound 1-54, 3-(5-(S or R)-cyclopentyl-3-oxo-6,7-dihydro-3H-pyrrolo[2,1-c][1,2,4]triazol-2(5H)-yl)bicyclo[1.1.1]pentane-1-carbonitrile]	340 nM
N#CC12CC(n3nc4n(c3=O)[C@H](c3ccc(Cl)cc3)CC4)(C1)C2 [Compound 1-46, (S)-3-(5-(4-chlorophenyl)-3-oxo-6,7-dihydro-3H-pyrrolo[2,1-c][1,2,4]triazol-2(5H)-yl)bicyclo[1.1.1]pentane-1-carbonitrile]	44 nM
C#Cc1cccc(C2CCc3nn(C45CC(F)(C4)C5)c(=O)n32)c1 (racemic) [Compound 4-4, (±)-5-(3-ethynylphenyl)-2-(3-fluorobicyclo[1.1.1]pentan-1-yl)-2,5,6,7-tetrahydro-3H-pyrrolo[2,1-c][1,2,4]triazol-3-one]	495 nM
N#CC12CCC(n3nc4n(c3=O)[C@H](c3cnccn3)CC4)(C1)C2 [Compound 1-60, (S)-4-(3-oxo-5-(pyrazin-2-yl)-6,7-dihydro-3H-pyrrolo[2,1-c][1,2,4]triazol-2(5H)-yl)bicyclo[2.1.1]hexane-1-carbonitrile]	512 nM
N#CC12CC(n3nc4n(c3=O)[C@H](c3ccccc3)CC4F)(C1)C2 (single isomer, unassigned) [Compound 6-7, 3-[(5S)-7-(S or R)-fluoro-3-oxo-5-phenyl-6,7-dihydro-3H-pyrrolo[2,1-c][1,2,4]triazol-2(5H)-yl]bicyclo[1.1.1]pentane-1-carbonitrile]	505 nM
O=c1n(C23CCC(CC2)C3)nc2n1[C@H](c1ccccc1)CC2 [Compound 1-1, (5S)-2-(bicyclo[2.2.1]heptan-1-yl)-5-phenyl-2,5,6,7-tetrahydro-3H-pyrrolo[2,1-c][1,2,4]triazol-3-one]	21.6 nM
N#CC12CC(n3nc4n(c3=O)[C@H](c3cncc(F)c3)CC4)(C1)C2 [Compound 1-11, 3-[(5S)-5-(5-fluoropyridin-3-yl)-3-oxo-6,7-dihydro-3H-pyrrolo[2,1-c][1,2,4]triazol-2(5H)-yl]bicyclo[1.1.1]pentane-1-carbonitrile]	300 nM
N#CC12CC(n3nc4n(c3=O)[C@H](c3cncc(Cl)c3)CC4)(C1)C2 [Compound 1-22, (S)-3-(5-(5-chloropyridin-3-yl)-3-oxo-6,7-dihydro-3H-pyrrolo[2,1-c][1,2,4]triazol-2(5H)-yl)bicyclo[1.1.1]pentane-1-carbonitrile]	485 nM
Cc1cncc([C@@H]2CCc3nn(C45CC(F)(C4)C5)c(=O)n32)n1 [Compound 4-13, (S)-2-(3-fluorobicyclo[1.1.1]pentan-1-yl)-5-(6-methylpyrazin-2-yl)-2,5,6,7-tetrahydro-3H-pyrrolo[2,1-c][1,2,4]triazol-3-one]	79.8 nM
Cc1cnc([C@@H]2CCc3nn(C45CC(F)(C4)C5)c(=O)n32)cn1 [Compound 4-14, (S)-2-(3-fluorobicyclo[1.1.1]pentan-1-yl)-5-(5-methylpyrazin-2-yl)-2,5,6,7-tetrahydro-3H-pyrrolo[2,1-c][1,2,4]triazol-3-one]	198 nM

Further lines, results first:

EC50	Compound
25.7 nM	O=c1n(C23CC(F)(C2)C3)nc2n1[C@H](c1cc(F)cc(F)c1)C[C@@H]2O [Compound 5-2, (5S,7S)-5-(3,5-difluorophenyl)-2-(3-fluorobicyclo[1.1.1]pentan-1-yl)-7-hydroxy-2,5,6,7-tetrahydro-3H-pyrrolo[2,1-c][1,2,4]triazol-3-one]
537 nM	O=c1n(C23CCC(C(F)F)(CC2)C3)nc2n1[C@H](c1cc(F)cc(F)c1)CC2 [Compound 1-27, (5S)-2-[4-(difluoromethyl)bicyclo[2.2.1]heptan-1-yl]-5-(3,5-difluorophenyl)-2,5,6,7-tetrahydro-3H-pyrrolo[2,1-c][1,2,4]triazol-3-one]
61.9 nM	COC(=O)C12CC(n3nc4n(c3=O)[C@H](c3cc(F)cc(F)c3)CC4)(C1)C2(F)F [Compound 1-36, methyl 3-[(5S)-5-(3,5-difluorophenyl)-3-oxo-6,7-dihydro-3H-pyrrolo[2,1-c][1,2,4]triazol-2(5H)-yl]-2,2-difluorobicyclo[1.1.1]pentane-1-carboxylate]
685 nM	O=c1n(C23CCC(CC2)CC3)nc2n1[C@H](c1cc(F)cc(F)c1)CC2 [Compound 1-25, (5S)-2-(bicyclo[2.2.2]octan-1-yl)-5-(3,5-difluorophenyl)-2,5,6,7-tetrahydro-3H-pyrrolo[2,1-c][1,2,4]triazol-3-one]
116 nM	O=c1n(C23CC(F)(C2)C3)nc2n1[C@H](c1cc(F)cc(F)c1)CC2F (single isomer, unassigned) [Compound 6-1, (5S)-5-(3,5-difluorophenyl)-7-(S or R)-fluoro-2-(3-fluorobicyclo[1.1.1]pentan-1-yl)-2,5,6,7-tetrahydro-3H-pyrrolo[2,1-c][1,2,4]triazol-3-one]
68.5 nM	C[C@H]1C[C@@H](c2cc(F)cc(F)c2)n2c1nn(C13CC(C#N)(C1)C3)c2=O [Compound 1-70, 3-((5S,7S)-5-(3,5-difluorophenyl)-7-methyl-3-oxo-6,7-dihydro-3H-pyrrolo[2,1-c][1,2,4]triazol-2(5H)-yl)bicyclo[1.1.1]pentane-1-carbonitrile]
49.1 nM	O=c1n(C23CC(c4ccccc4)(C2)C3)nc2n1[C@H](c1cc(F)cc(F)c1)CC2 [Compound 1-12, (5S)-5-(3,5-difluorophenyl)-2-(3-phenylbicyclo[1.1.1]pentan-1-yl)-2,5,6,7-tetrahydro-3H-pyrrolo[2,1-c][1,2,4]triazol-3-one]
45.9 nM	O=c1n(C23CC(F)(C2)C3)nc2n1[C@H](c1cc(F)cc(F)c1)CCC2 [Compound 1-58, (S)-5-(3,5-difluorophenyl)-2-(3-fluorobicyclo[1.1.1]pentan-1-yl)-5,6,7,8-tetrahydro-[1,2,4]triazolo[4,3-a]pyridin-3(2H)-one]
18.4 nM	O=c1n(C23CC(F)(C2)C3)nc2n1[C@H](c1cc(F)cc(F)c1)CC2F (single isomer, unassigned) [Compound 6-2, (5S)-5-(3,5-difluorophenyl)-7-(S or R)-fluoro-2-(3-fluorobicyclo[1.1.1]pentan-1-yl)-2,5,6,7-tetrahydro-3H-pyrrolo[2,1-c][1,2,4]triazol-3-one]
29.7 nM	N#CC12CC(n3nc4n(c3=O)[C@H](c3cccc(F)c3)CC4)(C1)C2 [Compound 1-24, (S)-3-(5-(3-fluorophenyl)-3-oxo-6,7-dihydro-3H-pyrrolo[2,1-c][1,2,4]triazol-2(5H)-yl)bicyclo[1.1.1]pentane-1-caronitrile]
272 nM	O=c1n(C23CC(F)(C2)C3)nc2n1[C@H](c1cncc(F)c1)CC2 [Compound 1-10, (5S)-2-(3-fluorobicyclo[1.1.1]pentan-1-yl)-5-(5-fluoropyridin-3-yl)-2,5,6,7-tetrahydro-3H-pyrrolo[2,1-c][1,2,4]triazol-3-one]
263 nM	C[C@@H]1C[C@@H](c2cc(F)cc(F)c2)n2c1nn(C13CC(C#N)(C1)C3)c2=O [Compound 1-69, 3-((5S,7R)-5-(3,5-difluorophenyl)-7-methyl-3-oxo-6,7-dihydro-3H-pyrrolo[2,1-c][1,2,4]triazol-2(5H)-yl)bicyclo[1.1.1]pentane-1-carbonitrile]
49.7 nM	N#CC12CCC(n3nc4n(c3=O)[C@H](c3cc(F)cc(F)c3)CC4)(C1)C2 [Compound 1-35, 4-[(5S)-5-(3,5-difluorophenyl)-3-oxo-6,7-dihydro-3H-pyrrolo[2,1-c][1,2,4]triazol-2(5H)-yl]bicyclo[2.1.1]hexane-1-carbonitrile]
152 nM	CC12CC(n3nc4n(c3=O)[C@H](c3cc(F)cc(F)c3)CC4)(CO1)C2 [Compound 1-14, (5S)-5-(3,5-difluorophenyl)-2-(1-methyl-2-oxabicyclo[2.1.1]hexan-4-yl)-2,5,6,7-tetrahydro-3H-pyrrolo[2,1-c][1,2,4]triazol-3-one]
23.1 nM	O=c1n(C23CC(F)(C2)C3)nc2n1[C@H](c1cccc(F)c1)CC2 [Compound 1-16, (S)-2-(3-fluorobicyclo[1.1.1]pentan-1-yl)-5-(3-fluorophenyl)-2,5,6,7-tetrahydro-3H-pyrrolo[2,1-c][1,2,4]triazol-3-one]
